Results from ChEMBL document CHEMBL1201862, “PubChem BioAssay data set” (2004).
Calls of active or inactive are those of the source.

Legend:
[1] = molecular target: Neurotensin receptor type 1 (Homo sapiens, UniProt P30989); type: functional;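 note: Image-based confirmatory dose-response assay measuring agonist activity at NTR1; NTR1-expressing U2OS osteosarcoma cells imaged for beta-arrestin GFP spot formation; agonist potency where compounds increase beta-arrestin recruitment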
[2] = molecular target: T1, Microphthalmia-associated transcription factor (Homo sapiens, UniProt O75030); assay: reducers of TRPM1 reporter luminescence, concentration series – cell-based, SK-MEL-5, cherry-picked, set 3, MITF inhibitor project, dose response (AID 493073); type: functional;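 note: SK-MEL-5 melanoma cells with luciferase driven by the MITF target TRPM1 promoter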
T1 sequence (O75030 whole entry): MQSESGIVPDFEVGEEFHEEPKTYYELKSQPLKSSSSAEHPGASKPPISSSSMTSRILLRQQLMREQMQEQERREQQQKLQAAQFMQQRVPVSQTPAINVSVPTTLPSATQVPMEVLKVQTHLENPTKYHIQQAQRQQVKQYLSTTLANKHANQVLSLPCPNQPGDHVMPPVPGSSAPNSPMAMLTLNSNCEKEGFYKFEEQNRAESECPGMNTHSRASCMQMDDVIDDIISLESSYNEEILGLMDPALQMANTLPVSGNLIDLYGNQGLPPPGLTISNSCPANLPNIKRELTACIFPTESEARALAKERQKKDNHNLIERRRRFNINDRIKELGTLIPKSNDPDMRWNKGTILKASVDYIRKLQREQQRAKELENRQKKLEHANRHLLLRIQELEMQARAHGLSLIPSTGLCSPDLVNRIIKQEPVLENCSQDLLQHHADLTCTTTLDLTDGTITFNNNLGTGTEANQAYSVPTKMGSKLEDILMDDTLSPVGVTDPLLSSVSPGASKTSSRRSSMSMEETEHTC

Streptococcus = assay: GAS UMAA2166 growth inhibition – luminescence, BacTiterGlo, counter-screen for streptokinase expression inhibitor project, dose response (AID 1915); type: functional, organism-based; settings: read-out: EC50;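 note: potency for reduction of bacterial viability or growth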
[3] = viability loss in THP-1 monocytes – THP-1 cells, cytotoxicity control for Vif-APOBEC3G degradation inhibitor project, dose response (AID 1117359); type: functional; settings: THP-1
Streptokinase A = molecular target: T2, Streptokinase A (Streptococcus pyogenes serotype M1, UniProt P10520); assay: viability-normalized secreted streptokinase activity reduction – plasminogen activation absorbance, OD405, dose response (AID 1914); type: functional, Streptococcus pyogenes M1 GAS;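 note: secreted streptokinase activity via plasminogen activation per viability signal from cell pellet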
T2 sequence (P10520 whole entry): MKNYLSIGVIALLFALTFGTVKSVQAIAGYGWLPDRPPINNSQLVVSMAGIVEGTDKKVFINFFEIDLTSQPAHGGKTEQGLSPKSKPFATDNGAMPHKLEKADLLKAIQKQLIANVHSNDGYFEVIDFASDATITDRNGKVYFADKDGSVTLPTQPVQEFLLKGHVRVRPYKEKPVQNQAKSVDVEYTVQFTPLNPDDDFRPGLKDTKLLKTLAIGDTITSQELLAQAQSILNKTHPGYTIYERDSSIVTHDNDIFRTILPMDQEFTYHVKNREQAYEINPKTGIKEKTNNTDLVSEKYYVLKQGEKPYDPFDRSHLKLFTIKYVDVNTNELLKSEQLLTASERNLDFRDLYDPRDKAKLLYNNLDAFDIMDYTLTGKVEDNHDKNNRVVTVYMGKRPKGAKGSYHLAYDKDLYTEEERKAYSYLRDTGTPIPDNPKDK

[4] = system: Streptococcus sp. 'group A'; assay: Streptococcus pyogenes SK(-)GAS viability under kanamycin – luminescence, BacTiterGlo, confirmation, counter-screen for streptokinase expression inhibitor project, dose response (AID 1900); type: functional, organism-based
[5] = molecular target: T3, Eukaryotic translation initiation factor 2-alpha kinase 3 (Homo sapiens, UniProt Q9NZJ5); assay: Counterscreen assay for PERK inhibitors: Dose response cell-based high throughput screening assay to measure inhibition of PERK at 6 hours. [Related pubchem assays: 1522, 1416 ]; type: functional
T3 sequence (Q9NZJ5 whole entry): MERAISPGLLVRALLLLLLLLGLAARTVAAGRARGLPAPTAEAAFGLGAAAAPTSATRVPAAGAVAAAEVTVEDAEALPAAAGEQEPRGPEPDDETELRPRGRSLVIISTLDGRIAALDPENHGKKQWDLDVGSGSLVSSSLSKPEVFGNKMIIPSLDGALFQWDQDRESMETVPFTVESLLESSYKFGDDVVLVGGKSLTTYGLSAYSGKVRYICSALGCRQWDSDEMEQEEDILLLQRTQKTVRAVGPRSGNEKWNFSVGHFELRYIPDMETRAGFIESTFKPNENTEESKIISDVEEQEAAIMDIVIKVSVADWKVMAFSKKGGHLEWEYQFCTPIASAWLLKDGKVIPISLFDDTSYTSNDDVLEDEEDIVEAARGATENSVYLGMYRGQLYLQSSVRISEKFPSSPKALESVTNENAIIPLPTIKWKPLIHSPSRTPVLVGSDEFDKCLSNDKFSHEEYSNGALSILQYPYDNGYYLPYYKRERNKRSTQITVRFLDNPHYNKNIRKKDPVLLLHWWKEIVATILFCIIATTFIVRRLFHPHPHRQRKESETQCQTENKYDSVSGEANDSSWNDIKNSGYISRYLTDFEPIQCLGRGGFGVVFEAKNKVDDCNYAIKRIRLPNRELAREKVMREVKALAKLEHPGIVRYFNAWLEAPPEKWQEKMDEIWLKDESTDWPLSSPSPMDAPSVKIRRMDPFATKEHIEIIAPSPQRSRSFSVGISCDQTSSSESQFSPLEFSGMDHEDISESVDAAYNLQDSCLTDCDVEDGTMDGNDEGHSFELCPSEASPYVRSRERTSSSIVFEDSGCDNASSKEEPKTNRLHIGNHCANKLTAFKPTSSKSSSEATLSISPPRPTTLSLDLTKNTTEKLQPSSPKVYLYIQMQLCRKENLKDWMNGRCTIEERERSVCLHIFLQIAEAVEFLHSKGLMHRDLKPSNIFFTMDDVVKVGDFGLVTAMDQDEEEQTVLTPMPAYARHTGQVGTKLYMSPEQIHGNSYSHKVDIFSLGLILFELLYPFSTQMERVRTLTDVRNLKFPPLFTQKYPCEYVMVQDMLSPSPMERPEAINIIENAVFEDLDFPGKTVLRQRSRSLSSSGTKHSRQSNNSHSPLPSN

[6] = molecular target: T3, Eukaryotic translation initiation factor 2-alpha kinase 3; assay: Dose response cell-based high-throughput screening assay to measure PERK inhibition. [Related pubchem assays: 1416 ]; type: functional
[7] = Luminescence Cell-Based Dose Confirmation HTS to Identify Inhibitors of Platelet Dense Granule Release. [Related pubchem assays: 1663 (Primary HTS), 1678 (Summary of Project)]; type: functional
[8] = molecular target: Luciferin 4-monooxygenase (Photinus pyralis, UniProt P08659); assay: inhibition of purified Photinus pyralis luciferase – biochemical, luminescence, dose response (AID 1891)
Hexokinase HKDC1 = molecular target: T4, Hexokinase HKDC1 (Homo sapiens, UniProt Q2TB90); assay: inhibition of HKDC1 glucose phosphorylation – biochemical, W721R variant, dose response (AID 504729); type: functional
T4 sequence (Q2TB90 whole entry): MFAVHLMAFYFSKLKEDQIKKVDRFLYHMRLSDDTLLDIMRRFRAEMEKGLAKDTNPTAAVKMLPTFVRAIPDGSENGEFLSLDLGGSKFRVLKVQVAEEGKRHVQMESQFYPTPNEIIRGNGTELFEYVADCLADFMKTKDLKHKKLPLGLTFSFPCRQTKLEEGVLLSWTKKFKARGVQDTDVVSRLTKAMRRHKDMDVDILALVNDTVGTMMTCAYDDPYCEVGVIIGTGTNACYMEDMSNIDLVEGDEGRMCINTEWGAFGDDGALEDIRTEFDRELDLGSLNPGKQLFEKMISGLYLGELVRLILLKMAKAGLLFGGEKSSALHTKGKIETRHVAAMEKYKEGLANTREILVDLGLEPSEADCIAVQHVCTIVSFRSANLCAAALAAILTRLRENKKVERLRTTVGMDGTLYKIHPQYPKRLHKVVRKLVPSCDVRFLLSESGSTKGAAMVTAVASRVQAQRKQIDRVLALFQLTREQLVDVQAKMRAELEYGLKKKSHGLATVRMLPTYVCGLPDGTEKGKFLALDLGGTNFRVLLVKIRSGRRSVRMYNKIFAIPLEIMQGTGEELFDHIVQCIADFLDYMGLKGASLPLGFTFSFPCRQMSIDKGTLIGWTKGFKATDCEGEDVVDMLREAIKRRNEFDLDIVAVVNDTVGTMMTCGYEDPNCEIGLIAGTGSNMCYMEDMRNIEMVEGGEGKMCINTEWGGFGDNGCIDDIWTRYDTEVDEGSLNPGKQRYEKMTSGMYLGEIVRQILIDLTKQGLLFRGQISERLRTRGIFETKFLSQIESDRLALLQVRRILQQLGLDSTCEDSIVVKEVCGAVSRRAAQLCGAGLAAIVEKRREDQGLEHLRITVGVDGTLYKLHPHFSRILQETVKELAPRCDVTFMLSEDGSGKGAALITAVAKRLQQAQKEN

[9] = Vero E6 cell cytotoxicity, dose response, cytotoxicity control for non-replicating M. tuberculosis project, secondary assay (AID 492998); type: functional, VeroE6; settings: Vero C1008
[10] = HepG2 cell cytotoxicity, dose response, cytotoxicity control for non-replicating M. tuberculosis project (AID 489018); type: functional; settings: Mycobacterium tuberculosis
cells = type: functional
[11] = THP-1 cell cytotoxicity, dose response, cytotoxicity control for non-replicating M. tuberculosis project (AID 489025); type: functional
Bcl-2-like protein 10 = Bcl-2-like protein 10 (Homo sapiens, UniProt Q9HD36); assay: Bcl-B/TR3 peptide binding disruption – biochemical, fluorescence polarization, FITC-TR3 peptide, selectivity assay for Bfl-1 inhibitor project, primary screen (AID 748);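 note: fluorescence polarization from a fluorescein-labelled TR3 peptide binding purified Bcl-B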
Vero [12] = assay: viability of Vero cells under compound – cytotoxicity control for flavivirus capping enzyme inhibitors (AID 588742); type: functional; settings: Chlorocebus sabaeus
Genome polyprotein = Genome polyprotein (dengue virus type 2, UniProt P29990); assay: flavivirus cap methylation enzyme inhibition – biochemical, confirmation dose response, primary screen (AID 588689); type: functional
[13] = molecular target: C-C chemokine receptor type 6 (Homo sapiens, UniProt P51684); assay: antagonism of CCR6 beta-arrestin recruitment – cell-based, luminescent beta-arrestin readout, dose response (AID 504728); type: functional
Nonstructural protein 1 = Nonstructural protein 1 (Influenza A virus, UniProt Q194T2); type: functional, Influenza A virus (A/California/07/2009(H1N1))
Beta-galactosidase = Beta-galactosidase (Escherichia coli, UniProt Q8VNN2); assay: detection-enzyme interference by beta-gal modulators – biochemical, E. coli enzyme, set 3, artefact control for CCR6 antagonist project, dose response (AID 504712); type: functional
[14] = molecular target: Melanin-concentrating hormone receptor 1 (Homo sapiens, UniProt Q99705); assay: Late-stage fluorescence-based counterscreen for antagonists of the G-protein coupled receptor 7 (GPR7): cell-based dose response assay to identify antagonists of the melanin-concentrating hormone receptor 1 (MCHR1). [Related pubchem assays (depositor defined):AID1861, AID1880, AID1952, AID2148, AID2251, AID2257, AID485339]; type: functional;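 note: stimulated with 30 nM MCH peptide agonist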
Vero [15] = assay: cells; type: functional; settings: Chlorocebus sabaeus
[16] = molecular target: Heat shock protein HSP 90-alpha (Homo sapiens, UniProt P07900); type: functional, organism-based

Chain of Neurotensin receptor type 1 (P30989 whole entry): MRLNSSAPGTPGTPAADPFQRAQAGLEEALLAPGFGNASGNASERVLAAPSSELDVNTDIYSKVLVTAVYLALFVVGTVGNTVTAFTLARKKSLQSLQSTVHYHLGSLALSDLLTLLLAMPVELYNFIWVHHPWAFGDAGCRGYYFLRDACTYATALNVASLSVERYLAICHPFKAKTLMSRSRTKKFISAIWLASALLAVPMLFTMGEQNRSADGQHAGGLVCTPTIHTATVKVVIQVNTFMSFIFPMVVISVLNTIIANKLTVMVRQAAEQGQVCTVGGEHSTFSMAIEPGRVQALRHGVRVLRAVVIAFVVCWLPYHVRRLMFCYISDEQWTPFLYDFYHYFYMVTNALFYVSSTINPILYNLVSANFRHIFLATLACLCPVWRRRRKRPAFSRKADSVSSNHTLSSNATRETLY
Chain of C-C chemokine receptor type 6 (P51684 whole entry): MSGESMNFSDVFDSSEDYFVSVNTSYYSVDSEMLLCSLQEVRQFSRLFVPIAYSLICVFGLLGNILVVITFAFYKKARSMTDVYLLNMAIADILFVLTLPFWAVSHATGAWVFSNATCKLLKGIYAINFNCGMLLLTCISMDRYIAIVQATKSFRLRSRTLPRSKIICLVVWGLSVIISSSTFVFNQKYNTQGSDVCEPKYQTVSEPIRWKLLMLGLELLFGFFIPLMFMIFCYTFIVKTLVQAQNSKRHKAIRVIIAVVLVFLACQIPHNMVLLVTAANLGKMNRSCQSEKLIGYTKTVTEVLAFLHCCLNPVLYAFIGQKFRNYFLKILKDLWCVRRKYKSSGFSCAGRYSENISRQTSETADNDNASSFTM
Chain of Beta-galactosidase (Q8VNN2 whole entry): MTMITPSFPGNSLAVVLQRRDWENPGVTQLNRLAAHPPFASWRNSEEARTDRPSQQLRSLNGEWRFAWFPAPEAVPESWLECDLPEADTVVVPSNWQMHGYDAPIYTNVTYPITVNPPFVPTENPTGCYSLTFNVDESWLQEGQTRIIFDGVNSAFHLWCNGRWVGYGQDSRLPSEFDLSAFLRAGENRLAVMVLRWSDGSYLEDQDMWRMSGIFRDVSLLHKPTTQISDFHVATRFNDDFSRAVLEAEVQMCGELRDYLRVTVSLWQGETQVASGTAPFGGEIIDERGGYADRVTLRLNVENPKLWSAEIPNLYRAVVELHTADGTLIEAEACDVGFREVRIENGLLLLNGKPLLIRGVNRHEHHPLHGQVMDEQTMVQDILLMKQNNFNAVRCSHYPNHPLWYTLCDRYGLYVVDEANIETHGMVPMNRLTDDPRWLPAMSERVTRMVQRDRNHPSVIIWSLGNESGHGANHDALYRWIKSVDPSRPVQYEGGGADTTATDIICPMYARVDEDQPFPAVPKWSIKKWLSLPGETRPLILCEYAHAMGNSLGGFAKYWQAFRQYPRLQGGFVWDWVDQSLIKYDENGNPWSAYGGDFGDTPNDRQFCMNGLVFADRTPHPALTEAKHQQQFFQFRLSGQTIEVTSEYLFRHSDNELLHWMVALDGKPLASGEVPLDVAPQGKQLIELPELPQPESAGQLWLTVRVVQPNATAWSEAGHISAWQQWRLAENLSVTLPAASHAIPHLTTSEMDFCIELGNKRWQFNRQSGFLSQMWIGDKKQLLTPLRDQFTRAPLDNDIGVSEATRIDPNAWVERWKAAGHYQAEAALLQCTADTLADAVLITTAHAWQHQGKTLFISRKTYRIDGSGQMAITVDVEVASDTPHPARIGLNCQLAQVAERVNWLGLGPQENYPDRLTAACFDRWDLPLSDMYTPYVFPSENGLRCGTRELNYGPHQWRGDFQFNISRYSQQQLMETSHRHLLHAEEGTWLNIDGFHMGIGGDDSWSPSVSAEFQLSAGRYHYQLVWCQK
Chain of Genome polyprotein (P29990 2492-3391 limits assumed): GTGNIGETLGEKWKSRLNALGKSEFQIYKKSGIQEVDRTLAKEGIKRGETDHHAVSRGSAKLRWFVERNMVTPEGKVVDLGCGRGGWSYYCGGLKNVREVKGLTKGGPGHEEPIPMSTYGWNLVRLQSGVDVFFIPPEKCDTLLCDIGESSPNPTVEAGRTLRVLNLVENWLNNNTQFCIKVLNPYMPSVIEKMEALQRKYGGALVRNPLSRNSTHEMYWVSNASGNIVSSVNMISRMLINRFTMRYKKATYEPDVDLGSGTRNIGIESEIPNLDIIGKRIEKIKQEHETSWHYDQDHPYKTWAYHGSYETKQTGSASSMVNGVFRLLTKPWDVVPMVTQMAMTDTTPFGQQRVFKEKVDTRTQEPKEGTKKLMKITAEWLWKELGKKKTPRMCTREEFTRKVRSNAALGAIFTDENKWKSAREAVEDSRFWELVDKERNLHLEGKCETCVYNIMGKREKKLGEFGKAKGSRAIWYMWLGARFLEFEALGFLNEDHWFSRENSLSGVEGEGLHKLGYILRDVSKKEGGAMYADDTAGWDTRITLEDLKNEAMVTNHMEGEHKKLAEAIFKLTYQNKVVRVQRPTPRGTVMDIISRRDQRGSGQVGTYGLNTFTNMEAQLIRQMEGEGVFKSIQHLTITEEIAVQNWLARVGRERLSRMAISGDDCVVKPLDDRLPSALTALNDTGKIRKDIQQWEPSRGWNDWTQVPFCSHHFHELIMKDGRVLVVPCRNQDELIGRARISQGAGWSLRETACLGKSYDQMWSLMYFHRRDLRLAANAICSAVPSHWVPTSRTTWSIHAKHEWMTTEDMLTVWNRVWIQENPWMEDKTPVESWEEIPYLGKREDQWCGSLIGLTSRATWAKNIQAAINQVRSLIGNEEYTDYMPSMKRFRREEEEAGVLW
Chain of Bcl-2-like protein 10 (Q9HD36 whole entry): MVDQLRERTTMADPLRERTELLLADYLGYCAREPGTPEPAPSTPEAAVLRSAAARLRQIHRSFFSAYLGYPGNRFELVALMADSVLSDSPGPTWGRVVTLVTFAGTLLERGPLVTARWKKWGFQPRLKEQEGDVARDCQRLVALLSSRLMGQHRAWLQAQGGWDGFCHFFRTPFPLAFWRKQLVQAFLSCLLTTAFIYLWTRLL
Chain of Luciferin 4-monooxygenase (P08659 whole entry): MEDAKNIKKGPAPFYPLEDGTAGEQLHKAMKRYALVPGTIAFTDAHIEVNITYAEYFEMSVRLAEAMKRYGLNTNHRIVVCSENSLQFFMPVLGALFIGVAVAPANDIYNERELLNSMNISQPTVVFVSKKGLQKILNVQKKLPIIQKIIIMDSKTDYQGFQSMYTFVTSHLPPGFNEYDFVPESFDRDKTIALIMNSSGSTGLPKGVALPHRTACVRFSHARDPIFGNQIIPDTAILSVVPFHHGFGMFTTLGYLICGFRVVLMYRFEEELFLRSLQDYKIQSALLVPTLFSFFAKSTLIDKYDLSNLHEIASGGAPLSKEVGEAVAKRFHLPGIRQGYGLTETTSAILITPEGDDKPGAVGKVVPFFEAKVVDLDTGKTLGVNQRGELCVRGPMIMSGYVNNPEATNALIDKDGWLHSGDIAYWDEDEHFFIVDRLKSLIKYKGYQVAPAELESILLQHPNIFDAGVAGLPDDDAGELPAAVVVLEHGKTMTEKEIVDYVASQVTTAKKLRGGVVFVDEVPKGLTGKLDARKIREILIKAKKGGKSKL
Chain of Nonstructural protein 1 (Q194T2 whole entry): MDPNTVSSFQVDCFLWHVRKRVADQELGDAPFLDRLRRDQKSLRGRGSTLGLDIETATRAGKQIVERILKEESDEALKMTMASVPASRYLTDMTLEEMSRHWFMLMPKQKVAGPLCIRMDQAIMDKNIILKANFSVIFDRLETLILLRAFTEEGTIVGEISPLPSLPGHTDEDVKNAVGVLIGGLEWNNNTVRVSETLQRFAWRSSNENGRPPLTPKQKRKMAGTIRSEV
Chain of Melanin-concentrating hormone receptor 1 (Q99705 whole entry): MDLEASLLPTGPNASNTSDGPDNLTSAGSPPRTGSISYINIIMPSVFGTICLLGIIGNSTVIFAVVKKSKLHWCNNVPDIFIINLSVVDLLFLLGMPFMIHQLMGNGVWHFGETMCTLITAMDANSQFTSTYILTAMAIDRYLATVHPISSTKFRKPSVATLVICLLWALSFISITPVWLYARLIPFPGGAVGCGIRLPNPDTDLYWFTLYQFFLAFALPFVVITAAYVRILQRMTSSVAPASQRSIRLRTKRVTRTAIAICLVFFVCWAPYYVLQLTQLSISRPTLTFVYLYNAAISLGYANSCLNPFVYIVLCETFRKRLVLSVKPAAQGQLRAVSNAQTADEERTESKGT

CC(=O)n1cc(C(C[N+](=O)[O-])SCCN)c2ccccc21 (stereo unspecified)
EC50 [1]: 14.2 µM (active)

CN1C(=O)/C(=C/c2cccn2-c2ccc3ccccc3c2)C(=O)NC1=S
AC50 [2]: 9.42 µM (active)
EC50 (Streptococcus): > 50 µM (not active)
CC50 [3]: 14.5 µM (active)
EC50 (Streptokinase A): 4.97 µM (active)
EC50 [1]: 12.1 µM (active)
EC50 [4]: 5.56 µM (active)

Cc1csc2nc(CNC(=O)CCC(=O)O)cn12
EC50 [5]: > 55.7 µM (not active)
EC50 [6]: > 55.7 µM (not active)

CC(C)c1nc2oc3c(NCC4CCCO4)ncnc3c2c2c1COC(C)(C)C2 (stereo unspecified)
EC50 [7]: > 112 µM (not active)
EC50 [8]: > 112 µM (not active)
IC50 (Hexokinase HKDC1): 3.81 µM (active)

O=c1c2cc(Cl)ccc2nc(-c2ccc(Cl)c(Cl)c2)n1O
CC50 [9]: 10.9 µM (active)
CC50 [10]: > 20 µM (active)
IC50 (cells): 4.14 µM (active)
EC50 (Streptococcus): 0.949 µM (active)
CC50 [11]: 14.2 µM (active)
EC50 [4]: 0.402 µM (active)

CCCCc1c(C)nc2c(OC)cccc2c1SCC(=O)O
EC50 [5]: > 55.7 µM (not active)
EC50 [6]: > 55.7 µM (not active)

COc1ccc(N2C(=O)c3cccc4cccc(c34)C2=O)nn1
IC50 (Bcl-2-like protein 10): > 50 µM (inactive)

Nc1c(S(=O)(=O)O)cc(NC(=O)c2ccccc2)c2c1C(=O)c1ccccc1C2=O
CC50 (Vero [12]): > 40 µM (active)
IC50 (Genome polyprotein): 34.3 µM (active)
IC50 [13]: 26.9 µM (inactive)
IC50 (Nonstructural protein 1): 13.3 µM (active)
IC50 (Beta-galactosidase): > 66.6 µM (inactive)

COc1ccc(Oc2c(C=O)cnn(-c3ccc(C(C)C)cc3)c2=O)cc1
IC50 [14]: 4.8 µM (active)

COc1cccc(/C=C2/CCC(CN(C)C)C2=O)c1 (stereo unspecified)
CC50 (Vero [15]): 22.4 µM (active)
IC50 [13]: 32.3 µM (inactive)
IC50 (Beta-galactosidase): > 66.6 µM (inactive)
AC50 [16]: 4.55 µM (active)
